From ChEMBL document CHEMBL5046282, “Discovery of Brain-Penetrant Glucosylceramide Synthase Inhibitors with a Novel Pharmacophore” (J Med Chem, 2022)
pEC50: −log10 of the molar value. In brackets after ≈: the same amount, converted by molar mass.

Tests used:
[1] = 1-Octanol/aqueous buffer partition coefficient, logD of the compound at pH 7.4 by chromatographic method; format: physicochemical
[2] = Kinetic solubility of the compound in JP2 fluid at pH 6.8 by precipitation method; format: physicochemical; settings: read-out: Kinetic_solubility
CYP1A2 = target: T1, CYP1A2 (Homo sapiens, UniProt P05177); assay: Inhibition of CYP1A2 in human liver microsomes using tacrine as substrate at 10 uM in presence of NADPH generating system incubated for 10 mins; format: ADME; settings: probe tacrine
T1 sequence (P05177 whole entry): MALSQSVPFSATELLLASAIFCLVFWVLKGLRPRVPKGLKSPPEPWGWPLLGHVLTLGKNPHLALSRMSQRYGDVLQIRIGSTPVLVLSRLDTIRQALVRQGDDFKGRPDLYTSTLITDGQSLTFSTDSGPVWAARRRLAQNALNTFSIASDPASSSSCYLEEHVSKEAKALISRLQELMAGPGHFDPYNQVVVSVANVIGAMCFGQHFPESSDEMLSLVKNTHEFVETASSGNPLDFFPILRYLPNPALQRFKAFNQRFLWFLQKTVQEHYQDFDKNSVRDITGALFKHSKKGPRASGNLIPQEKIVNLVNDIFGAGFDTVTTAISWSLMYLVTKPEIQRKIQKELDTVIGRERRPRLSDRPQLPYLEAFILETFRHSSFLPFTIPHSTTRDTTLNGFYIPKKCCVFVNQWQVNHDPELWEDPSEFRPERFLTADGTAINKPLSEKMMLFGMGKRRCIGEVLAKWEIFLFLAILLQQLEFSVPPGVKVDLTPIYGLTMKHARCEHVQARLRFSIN

CYP3A4 = CYP3A4 (Homo sapiens, UniProt P08684); assay: Inhibition of CYP3A4 in human liver microsomes using midazolam as substrate at 10 uM in presence of NADPH generating system incubated for 10 mins; format: ADME; settings: probe midazolam
[3] = AUC in non-fasted ICR mouse at 5 mg/kg, po by LC-MS/MS analysis; format: ADME, organism-based; design: dose 5 mg/kg; settings: in vivo
[4] = MRT in non-fasted ICR mouse at 5 mg/kg, po by LC-MS/MS analysis; format: ADME, organism-based; settings: in vivo
[5] = Fraction unbound in plasma of non-fasted ICR mouse at 30 mg/kg, po measured after 1 hr by LC-MS/MS analysis; format: ADME, organism-based
[6] = Fraction unbound in brain of non-fasted ICR mouse at 30 mg/kg, po measured after 1 hr by LC-MS/MS analysis; format: ADME, organism-based
Mus musculus = assay: In vivo inhibition of GCS activity in po dosed C57BL/6J mouse assessed as reduction in GlcCer level in cerebral cortex measured after 6 hrs; format: functional, organism-based; settings: dose 30-300 mg/kg
[7] = Oral bioavailability in non-fasted ICR mouse at 5 mg/kg by LC-MS/MS analysis; format: ADME, organism-based; settings: in vivo
[8] = Selectivity index, ratio of IC50 for mouse GCS to IC50 for human GCS
[9] = target: T2, Lysosomal acid glucosylceramidase (Homo sapiens, UniProt P04062); assay: Inhibition of human recombinant GCase using 4-methylumbelliferyl beta-D-glucopyranoside as substrate incubated for 20 mins by fluorescence-based analysis
T2 sequence (P04062 whole entry): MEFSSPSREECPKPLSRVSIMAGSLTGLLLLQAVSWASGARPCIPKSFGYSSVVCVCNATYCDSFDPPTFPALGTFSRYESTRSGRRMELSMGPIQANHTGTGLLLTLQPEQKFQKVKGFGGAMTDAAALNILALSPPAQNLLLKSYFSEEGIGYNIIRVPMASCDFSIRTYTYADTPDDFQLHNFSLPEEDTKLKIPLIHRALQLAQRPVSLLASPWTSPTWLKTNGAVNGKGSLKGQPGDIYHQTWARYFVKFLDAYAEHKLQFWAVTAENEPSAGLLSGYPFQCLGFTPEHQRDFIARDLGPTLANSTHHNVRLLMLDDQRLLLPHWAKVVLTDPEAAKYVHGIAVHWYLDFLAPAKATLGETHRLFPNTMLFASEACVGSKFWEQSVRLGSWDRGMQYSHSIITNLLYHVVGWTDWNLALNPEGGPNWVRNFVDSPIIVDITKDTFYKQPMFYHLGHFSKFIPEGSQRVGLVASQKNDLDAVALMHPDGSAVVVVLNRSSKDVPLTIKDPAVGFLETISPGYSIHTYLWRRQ

[10] = Toxicity in Sprague-Dawley rat assessed as change in body weight at 30 to 300 mg/kg, po administered once daily for 3 days; format: organism-based; settings: in vivo, 72 h, dose 30-300 mg/kg, time 3 day

Chain of CYP3A4 (P08684 whole entry): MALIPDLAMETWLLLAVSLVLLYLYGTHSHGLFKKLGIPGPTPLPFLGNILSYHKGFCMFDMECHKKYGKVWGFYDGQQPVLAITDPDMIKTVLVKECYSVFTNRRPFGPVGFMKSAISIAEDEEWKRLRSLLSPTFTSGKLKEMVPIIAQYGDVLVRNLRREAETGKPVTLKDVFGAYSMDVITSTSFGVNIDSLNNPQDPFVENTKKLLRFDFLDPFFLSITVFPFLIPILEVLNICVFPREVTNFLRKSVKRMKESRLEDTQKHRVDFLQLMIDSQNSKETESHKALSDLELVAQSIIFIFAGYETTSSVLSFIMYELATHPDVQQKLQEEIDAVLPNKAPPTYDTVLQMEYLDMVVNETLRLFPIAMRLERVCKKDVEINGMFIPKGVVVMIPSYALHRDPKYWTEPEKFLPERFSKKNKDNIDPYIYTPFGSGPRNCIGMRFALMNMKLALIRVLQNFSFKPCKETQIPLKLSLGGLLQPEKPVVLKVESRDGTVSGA

- chromatographic logD [1]: 2.42
- solubility kinetic [2]: 45 µg/mL (≈ 101 µM)
- inhibition at 10 min, 10 µM (CYP1A2): 9.3%
- inhibition at 10 min, 10 µM (CYP3A4): -4.8%
- AUC [3]: 829 ng·h/mL
- MRT [4]: 1.91 h
- fraction unbound at 1 h [5]: 0.23
- fraction unbound at 1 h [6]: 0.039
- bioavailability [7]: 31%
- Ratio IC50 [8]: 12.7
- pEC50 [9]: < 3.52
SMILES: CC(C)(O)c1ccc(NC(=O)c2ccnn(-c3ccccc3OCC(F)(F)F)c2=O)cc1
- inhibition (Mus musculus): Dose-Dependent Effect
- Activity [10]: Non-Toxic
